Data as given in patent US9896443B2, “Perforin inhibiting benzenesulfonamide compounds, preparation and uses thereof” (Peter MacCallum Cancer Institute, priority 2012, dated 2018).
Where a name gives a salt, the structure may show the parent alone. Read-outs that look alike come from different tables or passages of the source.

Assays:
[1] = test system: KHYG-1 NK cell-mediated lysis of K562 cells; experiment: Inhibition of KHYG-1 NK cell-mediated lysis of K562 cells (51Cr release); type: cell-based; details: K562 target cells, Effector:Target 2:1, 4 hours at 37° C.
Procedure: Inhibition of KHYG-1 NK Cell-Mediated Lysis of K562 Cells.
Test compounds were added to KHYG-1 cells at various concentrations up to 20 µM and incubated at RT for 20 minutes. 1×10^6 K562 target cells were labelled with 75 μCi ^51Cr in 200 μl RPMI for 90 mins at 37° C., cells were washed as described above and resuspended in 5 ml RPMI+0.1% BSA. 50 μl of ^51Cr labelled K562 leukemia target cells were added to each well of the KHYG-1 plate (Effector:Target 2:1) and incubated at 37° C. for 4 hours. ^51Cr release was assayed using a Skatron Harvesting Press and radioactivity estimated on a Wallac Wizard 1470 Automatic Gamma counter (Turku, Finland). The percentage of specific cytotoxicity was calculated by the formula: […]

recombinant perforin = recombinant perforin (UniProt P10820); type: cell-based
Chain of recombinant perforin (P10820 whole entry): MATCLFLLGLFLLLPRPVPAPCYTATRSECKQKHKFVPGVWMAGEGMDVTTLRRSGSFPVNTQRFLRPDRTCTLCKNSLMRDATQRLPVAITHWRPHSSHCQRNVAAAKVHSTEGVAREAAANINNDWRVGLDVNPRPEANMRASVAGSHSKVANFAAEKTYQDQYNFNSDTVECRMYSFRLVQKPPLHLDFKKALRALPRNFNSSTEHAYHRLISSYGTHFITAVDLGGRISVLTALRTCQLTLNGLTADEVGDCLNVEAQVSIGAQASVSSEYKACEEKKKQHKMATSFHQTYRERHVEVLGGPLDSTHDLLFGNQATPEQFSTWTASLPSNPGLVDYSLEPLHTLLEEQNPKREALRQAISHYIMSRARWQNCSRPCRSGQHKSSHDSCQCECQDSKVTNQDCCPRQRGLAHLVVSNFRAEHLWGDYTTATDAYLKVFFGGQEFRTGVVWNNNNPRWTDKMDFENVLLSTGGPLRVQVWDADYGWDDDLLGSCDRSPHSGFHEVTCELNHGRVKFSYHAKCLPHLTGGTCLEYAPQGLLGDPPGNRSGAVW
Procedure: Inhibition of perforin-mediated lysis of Jurkat cells.
The ability of the compounds to inhibit the lysis of nucleated (Jurkat T lymphoma) cells in the presence of 0.1% BSA, as measured by release of ^51Cr was measured. Jurkat target cells were labelled by incubation in medium with 100 μCi ^51Cr for one hour. The cells were then washed three times to remove unincorporated isotope and re-suspended at 1×10^5 cells per mL in RPMI buffer supplemented with 0.1% BSA. […] Each data point was performed in triplicate and an IC50 was calculated from the range of concentrations described to above.

[2] = lysis of Jurkat T lymphoma cells by recombinant perforin, 0.1% BSA, 30 min pre-incubation, 4 hours at 37° C.; read-out: Jurkat IC50
[3] = read-out: Jurkat IC50; lysis of Jurkat T lymphoma cells by recombinant perforin, 0.1% BSA, 30 min pre-incubation, 4 hours at 37° C.

SMILES	inhibition at 20 µM ([1]; 4 h)	IC50 (recombinant perforin; [2])	other results
CN1Cc2cc(-c3ccc(-c4cncc(NS(=O)(=O)c5ccc(F)cc5F)c4)s3)ccc2C1=O [Compound 1, 2,4-Difluoro-N-(5-(5-(2-methyl-1-oxoisoindolin-5-yl)thiophen-2-yl)pyridin-3-yl)benzenesulfonamide]	46%	–	–
CN1Cc2cc(-c3ccc(-c4cncc(NS(=O)(=O)c5ccc(F)cc5)c4)s3)ccc2C1=O [Compound 6, 4-Fluoro-N-(5-(5-(2-methyl-1-oxoisoindolin-5-yl)thiophen-2-yl)pyridin-3-yl)benzene-sulfonamide]	10%	9.65 µM	–
CN1Cc2cc(-c3ccc(-c4cncc(NS(=O)(=O)c5c(F)cc(F)cc5F)c4)s3)ccc2C1=O [Compound 8, 2,4,6-Trifluoro-N-(5-(5-(2-methyl-1-oxoisoindolin-5-yl)thiophen-2-yl)pyridin-3-yl)benzene-sulfonamide]	52%	1.76 µM	–
CN1Cc2cc(-c3ccc(-c4cncc(NS(=O)(=O)c5ccc(Cl)cc5)c4)s3)ccc2C1=O [Compound 11, 4-Chloro-N-(5-(5-(2-methyl-1-oxoisoindolin-5-yl)thiophen-2-yl)pyridin-3-yl)benzenesulfonamide]	–	5.39 µM	inhibition at 20 µM [1]: 17%
CN1Cc2cc(-c3ccc(-c4cncc(NS(=O)(=O)c5ccc(Cl)cc5)c4)s3)ccc2C1=O [Compound 11.Na, 4-Chloro-N-(5-(5-(2-methyl-1-oxoisoindolin-5-yl)thiophen-2-yl)pyridin-3-yl)benzenesulfonamide]	14%	8.28 µM	–
CN1Cc2cc(-c3ccc(-c4cncc(NS(=O)(=O)c5cccc(Cl)c5F)c4)s3)ccc2C1=O [Compound 14, 3-Chloro-2-fluoro-N-(5-(5-(2-methyl-1-oxoisoindolin-5-yl)thiophen-2-yl)pyridin-3-yl)benzenesulfonamide]	–	13 µM	–
COc1ccc(S(=O)(=O)Nc2cncc(-c3ccc(-c4ccc5c(c4)CN(C)C5=O)s3)c2)cc1OC [Compound 21.Na, 3,4-Dimethoxy-N-(5-(5-(2-methyl-1-oxoisoindolin-5-yl)thiophen-2-yl)pyridin-3-yl)benzenesulfonamide, sodium salt]	31%	–	–
CN1Cc2cc(-c3ccc(-c4cncc(NS(=O)(=O)c5ccccc5[N+](=O)[O-])c4)s3)ccc2C1=O [Compound 28, N-(5-(5-(2-Methyl-1-oxoisoindolin-5-yl)thiophen-2-yl)pyridin-3-yl)-2-nitrobenzenesulfonamide]	71%	6.65 µM	–
CN1Cc2cc(-c3ccc(-c4cncc(NS(=O)(=O)c5ccc([N+](=O)[O-])cc5)c4)s3)ccc2C1=O [Compound 29, N-(5-(5-(2-Methyl-1-oxoisoindolin-5-yl)thiophen-2-yl)pyridin-3-yl)-4-nitrobenzenesulfonamide]	48%	2.74 µM	–
CN1Cc2cc(-c3ccc(-c4cncc(NS(=O)(=O)c5ccc([N+](=O)[O-])cc5)c4)s3)ccc2C1=O [Compound 29.Na, N-(5-(5-(2-Methyl-1-oxoisoindolin-5-yl)thiophen-2-yl)pyridin-3-yl)-4-nitrobenzenesulfonamide]	–	3.34 µM	Inhibition of KHYG-1 at 20 μM (%) [1]: 49%
CN1Cc2cc(-c3ccc(-c4cncc(NS(=O)(=O)c5ccc(C#N)cc5)c4)s3)ccc2C1=O [Compound 30, 4-Cyano-N-(5-(5-(2-methyl-1-oxoisoindolin-5-yl)thiophen-2-yl)pyridin-3-yl)benzenesulfonamide]	49%	5.17 µM	–
CN1Cc2cc(-c3ccc(-c4cnc(F)c(NS(=O)(=O)c5ccc(F)cc5F)c4)s3)ccc2C1=O [Compound 39, 2,4-Difluoro-N-(2-fluoro-5-(5-(2-methyl-1-oxoisoindolin-5-yl)thiophen-2-yl)pyridin-3-yl)benzenesulphonamide]	56%	1.99 µM	–
CN1Cc2cc(-c3ccc(-c4cnc(F)c(NS(=O)(=O)c5ccc(F)cc5F)c4)s3)ccc2C1=O [Compound 39.Na, 2,4-Difluoro-N-(2-fluoro-5-(5-(2-methyl-1-oxoisoindolin-5-yl)thiophen-2-yl)pyridin-3-yl)benzenesulphonamide]	–	0.75 µM	Inhibition of KHYG-1 at 20 μM (%) [1]: 48%
CN1Cc2cc(-c3ccc(-c4cnc(Cl)c(NS(=O)(=O)c5ccc(F)cc5F)c4)s3)ccc2C1=O [Compound 40, 2,4-Difluoro-N-(2-chloro-5-(5-(2-methyl-1-oxoisoindolin-5-yl)thiophen-2-yl)pyridin-3-yl)benzenesulphonamide]	85%	1.03 µM	–
O=C1NCc2cc(-c3ccc(-c4cncc(NS(=O)(=O)c5ccc(F)cc5F)c4)s3)ccc21 [Compound 48, 2,4-Difluoro-N-(5-(5-(1-oxoisoindolin-5-yl)thiophen-2-yl)pyridin-3-yl)benzenesulfonamide]	35%	–	–
O=C1NCc2ccc(-c3ccc(-c4cncc(NS(=O)(=O)c5ccc(F)cc5F)c4)s3)cc21 [Compound 49, 2,4-Difluoro-N-(5-(5-(3-oxoisoindolin-5-yl)thiophen-2-yl)pyridin-3-yl)benzenesulfonamide]	49%	–	IC50 (recombinant perforin; [3]): 13.2 µM
CN1Cc2cc(-c3ccc(-c4cncc(NS(=O)(=O)c5ccccc5)c4)s3)ccc2C1=O [Compound 62, N-(5-(5-(2-Methyl-1-oxoisoindolin-5-yl)thiophen-2-yl)pyridin-3-yl)benzenesulphonamide]	9.71 ± 2%	8.46 µM	–
CN1Cc2cc(-c3ccc(-c4ccc(OC(F)(F)F)c(NS(=O)(=O)c5ccccn5)c4)s3)ccc2C1=O [Compound 63.Na, N-(5-(5-(2-Methyl-1-oxoisoindolin-5-yl)thiophen-2-yl)-2-(trifluoromethoxy)phenyl)pyridine-2-sulfonamide]	–	19.6 µM	Inhibition of KHYG-1 at 20 μM (%) [1]: 77.07 ± 5%
CN1C(=O)Cc2cc(-c3ccc(-c4cncc(NS(=O)(=O)c5ccc(F)cc5F)c4)s3)ccc21 [Compound 66, 2,4-Difluoro-N-(5-(5-(1-methyl-2-oxoindolin-5-yl)thiophen-2-yl)pyridin-3-yl)benzenesulfonamides]	34.3 ± 9%	–	IC50 (recombinant perforin; [3]): 10.2 µM
CN1Cc2cc(-c3ccc(-c4cncc(NC(=S)NC(=O)c5ccc(F)cc5)c4)s3)ccc2C1=O [Compound 68, 4-Fluoro-N-((5-(5-(2-methyl-1-oxoisoindolin-5-yl)thiophen-2-yl)pyridin-3-yl)carbamothioyl)benzamide]	–	15.9 µM	–
O=C1c2ccc(-c3ccc(-c4cncc(NS(=O)(=O)c5ccc(F)cc5F)c4)s3)cc2CN1CCN1CCOCC1 [Compound 69, 2,4-Difluoro-N-(5-(5-(2-(2-morpholinoethyl)-1-oxoisoindolin-5-yl)thiophen-2-yl)pyridin-3-yl)benzenesulfonamide]	–	17 µM	–
O=S(=O)(Nc1cncc(-c2ccc(-c3ccc4[nH]ccc4c3)s2)c1)c1ccc(F)cc1F [Compound 71, N-(5-(5-(1H-indol-5-yl)thiophen-2-yl)pyridin-3-yl)-2,4-difluorobenzenesulfonamide]	87.7 ± 9%	–	–
CN1Cc2cc(-c3ccc(-c4cncc(NS(=O)(=O)c5ccccc5C#N)c4)s3)ccc2C1=O [Compound 79.Na, 2-Cyano-N-(5-(5-(2-methyl-1-oxoisoindolin-5-yl)thiophen-2-yl)pyridin-3-yl)benzenesulfonamides]	–	9.17 µM	–
Cc1cc(C)n(-c2ccc(S(=O)(=O)Nc3cncc(-c4ccc(-c5ccc6c(c5)CN(C)C6=O)s4)c3)cc2)n1 [Compound 80, 4-(3,5-Dimethyl-1H-pyrazol-1-yl)-N-(5-(5-(2-methyl-1-oxoisoindolin-5-yl)thiophen-2-yl)pyridin-3-yl)benzenesulfonamides]	–	19.1 µM	–
CN1Cc2cc(-c3ccc(-c4cncc(NS(=O)(=O)c5ccc(F)cc5F)c4)nc3)ccc2C1=O [Compound 83, 2,4-Difluoro-N-(5-(2-methyl-1-oxoisoindolin-5-yl)-[2,3′-bipyridin]-5′-yl)benzenesulphonamide]	–	8.17 µM	–
CCOC(=O)c1ccc(S(=O)(=O)Nc2cncc(-c3ccc(-c4ccc5c(c4)CN(C)C5=O)s3)c2)cc1 [Compound 85, Ethyl 4-(N-(5-(5-(2-methyl-1-oxoisoindolin-5-yl)thiophen-2-yl)pyridin-3-yl)sulfamoyl)benzoate]	–	19.4 µM	–
CN1Cc2cc(-c3ccc(-c4cnc(F)c(NS(=O)(=O)c5ccccn5)c4)s3)ccc2C1=O [Compound 90, N-(2-Fluoro-5-(5-(2-methyl-1-oxoisoindolin-5-yl)thiophen-2-yl)pyridin-3-yl)pyridine-2-sulfonamide]	–	4.1 µM	–
COC(=O)c1cccc(S(=O)(=O)Nc2cncc(-c3ccc(-c4ccc5c(c4)CN(C)C5=O)s3)c2)c1 [Compound 91, Methyl 3-(N-(5-(5-(2-methyl-1-oxoisoindolin-5-yl)thiophen-2-yl)pyridin-3-yl)sulfamoyl)benzoate]	–	7.77 µM	–
